# In article PMC9750872, “Ras-mutant cancers are sensitive to small molecule inhibition of V-type ATPases in mice” (Nature biotechnology, 2022):
# Columns and labels:
# [1] = Plasma concentration in mice; assay type: in vivo; conditions: female, athymic nude (NU/NU, Charles River strain # 088), mouse, intraperitoneal, 10 mg/kg, after 4 hours, read-out: maximum concentration (Cmax) in blood (or plasma)
# Description: 5 × 10^6 A549 cells were subcutaneously injected into the lower left flank of 6–8-week old athymic nude female mice (Charles River strain # 088, homozygous NU/NU). To assess establishment of tumors, mice were examined 5 days post-inoculation and were randomly segregated into two treatment groups [vehicle control, 10 mg/kg 249C IP, n = 7 per group] and were treated twice daily with the drug in NPM or vehicle control (5% weight aqueous solution of carboxymethyl cellulose). Tumor volumes were calculated using the formula (L × W × H)/2 with recorded caliper measurements. Survival curves and statistical analyses were performed using Excel. Animals were maintained on a standard chow diet; 12:12 dark/light cycle and in group housing in hepa-filtered cages. All animal procedures were performed under IACUC approved protocols and guidelines. Animals from both groups were weighed every 3 days. Plasma concentration was measured from blood collected using standard and established protocols.
# [2] = tested on: MelJuso (HRASG13D and NRASQ61L); assay: Cell viability screen, CellTiter-Glo, 72 h; assay type: cell-based, human; conditions: ATP content/viability
# Description: Figure 1: Optimization of Potency and Drug Properties of Small Molecule Inhibitors of Ras- and Raf-mutant Cells using Viability Screens. (A) Cell viability screen of ~300 small molecules in A549 (KRASG12S), LOX IMVI (BRAFV600E), and MelJuso (HRASG13D and NRASQ61L). Cells were treated with vehicle DMSO or increasing concentrations of small molecules in triplicate for 72 h and ATP content/viability was measured using CellTiter-Glo Luminescent Cell Viability Assay. The results shown for all cell viability figures are representative of at least two independent experiments. […] (C) Evolution of the Structure Activity Relationship (SAR) and IC50s of the first (68) and last (249C | lead due to drug-like properties) compounds in the screen. (D) 249C sensitivity for a panel of 53 cancer cell lines (including lung, pancreatic, breast, ovarian, hematological/liver, prostate, colorectal cancers, glioma and melanoma). […] (F) Quantitative whole proteome analysis of the effects of small molecule treatment by mass spectrometry. A549 cells were treated with DMSO or 68 (30 μM), 226C (1μM) or 249C (1μM) for 48 h prior to analysis of proteomes with TMT labeling followed by quantification relative to the DMSO control. […]
# [3] = tested on: SW48 parental (KRAS WT) xenografts; assay: SW48 isogenic colon xenograft; assay type: in vivo, mouse; conditions: 10 mg/kg i.p., 14 days of treatment
# Text: (§1) To explore the relationship between individual KRAS mutants and 249C sensitivity in vivo, we used a colon cancer (SW48) xenograft model with a set of colon cancer cell lines which differ in KRAS mutation status but are otherwise genetically matched. Stable derivatives of the SW48 cell line were derived by introducing a KRASG12D, KRASG12V or KRASG13D point mutation via rrAV gene editing technology previously reported. To compare KRAS mutants in a cancer-relevant system, four cell lines: (SW48, SW48 KRASG12D/+, SW48 KRASG12V/+ and SW48 KRASG13D/+) were injected into athymic mice and 14 days of treatment (10 mg/kg 249C or vehicle control, i.p., n = 5 for all arms) was started when the average tumor volume reached approximately 100–200 mm^3 following random segregation into groups. As before, KRASG13D tumors were most sensitive to 249C both in vitro and in vivo (Fig. 6d–e). […] Changes in tumor volume are presented for animals bearing isogenic SW48 cells: parental/KRASWT (Fig. 6f), KRASG12D/+ (Fig. 6g), KRASG12V/+, (Fig. 6h), KRASG13D/+ (Fig. 6i). Note that SW48 tumors with different KRAS variants show different basal growth rates, as reported previously. […] Further, no significant changes in body weight of the mice were observed during the study (Fig. 6j).
# (§2) For cell line xenografts, 6 × 10^6 SW48 cells were subcutaneously injected into the flanks of 6–8-week old athymic nude female mice (Taconic model # NCRNU-F, CrTac:NCR-Foxn1 sp/sp) and tumor growth was monitored with caliper measurement. Once the mean tumor reached a certain volume (between 100–200 mm^3), animals were randomized into different treatment groups of 5 animals per group. 249C for in vivo use was formulated in 0.5% Methylcellulose and dosed i.p. (10 mg/kg, for 2 weeks). Antitumor activity was determined by calculating the treatment over control (T/C) tumor volume ratio at the end of the study. Either at the end of each study, of if any animal reached a humane endpoint, animals were euthanized with CO2 followed by cervical dislocation or another secondary method of euthanasia approved by the IACUC protocol. Mouse manipulations were performed in accordance with UCSF’s IACUC protocol AN179973.Mice were housed in the UCSF Animal Care Facility LARC at the Helen Diller Family Cancer Center at UCSF Mission Bay. Mice were housed in a specific-pathogen free individual suite. They are housed up to 5 per cage in ventilator cages, with ad libitum food and water on a 12-hour light cycle and controlled temperature and humidity conditions (67–74°F and 30–70%).
# [4] = tested on: SW48 KRASG13D/+ xenografts; assay: SW48 isogenic colon xenograft; assay type: in vivo, mouse; conditions: 10 mg/kg i.p., 14 days of treatment
# Text: as §1, §2
# [5] = tested on: SW48 KRASG12V/+ xenografts; assay: SW48 isogenic colon xenograft; assay type: in vivo, mouse; conditions: 10 mg/kg i.p., 14 days of treatment
# Text: as §1, §2
# [6] = tested on: SW48 KRASG12D/+ xenografts; assay: SW48 isogenic colon xenograft; assay type: in vivo, mouse; conditions: 10 mg/kg i.p., 14 days of treatment
# Text: as §1, §2
# [7] = Maximum tolerated dose study; assay type: in vivo
# Text: MTD studies were outsourced and performed at a local CRO based on their established protocols.
# MEFs KRAS G12D = assay: Cell proliferation of Ras-less MEFs expressing human KRAS/BRAF; conditions: Mus musculus
# Description: Logarithmically growing cells were plated in antibiotic-free medium supplemented with 2% fetal bovine serum at a density of 5,000 cells per well. The next day, cells were treated in triplicates with increasing doses of in-house small molecule inhibitor drugs and a DMSO vehicle control for 3 days and subsequently assessed for cell viability by measurement of ATP with CellTiter-Glo Luminescent Cell Viability Assay (Promega). Signal intensity was read on a Glomax™ 96 Microplate Luminometer (Promega) with GLOMAX software (version 1.9.3) and percent cell survival was calculated based on the reading of vehicle control cells set as 100% using Excel (2012) and GraphPad Prism (version 6)Each compound was tested a minimum of 2 times with n = 3. All cell proliferation assays (cancer cell lines or MEFs) were done in a similar way.
compound,measurement,setting,value
CN1CCOC(CNC(=O)C2(C)C(c3ccc(Cl)o3)C(c3ccc(F)cc3F)=NN2c2ccc(F)cc2F)C1 (stereo not shown) [Compound 249C],Cmax,[1],20 µM
same,IC50,[2]; listed as 002-249C,21.9 nM
same,IC50,"[2]; Homo sapiens, MEL-JUSO",22 nM
same,Tumor Growth Inhibition (TGI) on Day 21,[3],0%
same,Treatment/Control on Day 21,[4],18%
same,Tumor Growth Inhibition (TGI) on Day 21,[4],82%
same,Treatment/Control on Day 21,[5],55%
same,Tumor Growth Inhibition (TGI) on Day 21,[5],45%
same,Treatment/Control on Day 21,[6],75%
same,Tumor Growth Inhibition (TGI) on Day 21,[6],25%
same,body weight,"[7]; 150 mg/kg, after 21 days in vivo",no significant difference in body weight
same,MTD at 21 days,"[7]; mouse, in vivo, mice",150 mg/kg
same,IC50,MEFs KRAS G12D,300 nM
